Measured values as given in PubChem BioAssay (NCI).
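GI50: concentration for 50% inhibition of growth. Definition used: TGI = concentration required for complete inhibition of growth.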

Key:
Assay in all cases: NCI anticancer screen, dose series, 384-well format
SNB-19 CNS = test system: SNB-19 CNS
MOLT-4 leukemia = test system: MOLT-4 leukemia
HS 578T breast = test system: HS 578T breast
NCI-H226 lung = test system: NCI-H226 lung
MDA-MB-231 breast = test system: MDA-MB-231 breast
HT29 colon = test system: HT29 colon
MDA-MB-435 melanoma = test system: MDA-MB-435 melanoma
CAKI-1 renal = test system: CAKI-1 renal
NCI-H522 lung = test system: NCI-H522 lung
SK-MEL-2 melanoma = test system: SK-MEL-2 melanoma
SF-539 CNS = test system: SF-539 CNS
DU-145 prostate = test system: DU-145 prostate
SK-MEL-28 melanoma = test system: SK-MEL-28 melanoma
SF-268 CNS = test system: SF-268 CNS
TK-10 renal = test system: TK-10 renal
OVCAR-3 ovarian = test system: OVCAR-3 ovarian
HCC-2998 colon = test system: HCC-2998 colon
SK-MEL-5 melanoma = test system: SK-MEL-5 melanoma
M14 melanoma = test system: M14 melanoma
NCI-H322M lung = test system: NCI-H322M lung
IGROV1 ovarian = test system: IGROV1 ovarian
A498 renal = test system: A498 renal
SW-620 colon = test system: SW-620 colon
SR leukemia = test system: SR leukemia
MCF7 breast = test system: MCF7 breast
OVCAR-8 ovarian = test system: OVCAR-8 ovarian
NCI/ADR-RES ovarian = test system: NCI/ADR-RES ovarian
RPMI-8226 leukemia = test system: RPMI-8226 leukemia
UACC-62 melanoma = test system: UACC-62 melanoma
786-0 renal = test system: 786-0 renal
OVCAR-4 ovarian = test system: OVCAR-4 ovarian
ACHN renal = test system: ACHN renal
HCT-15 colon = test system: HCT-15 colon
OVCAR-5 ovarian = test system: OVCAR-5 ovarian
BT-549 breast = test system: BT-549 breast
MDA-MB-468 breast = test system: MDA-MB-468 breast
HL-60(TB) leukemia = test system: HL-60(TB) leukemia
A549 NSCLC = test system: A549 NSCLC
COLO 205 colon = test system: COLO 205 colon
CCRF-CEM leukemia = test system: CCRF-CEM leukemia
SN12C renal = test system: SN12C renal
SF-295 CNS = test system: SF-295 CNS
PC-3 prostate = test system: PC-3 prostate
NCI-H23 lung = test system: NCI-H23 lung
SNB-75 CNS = test system: SNB-75 CNS
HOP-62 NSCLC = test system: HOP-62 NSCLC
T-47D breast = test system: T-47D breast
MALME-3M melanoma = test system: MALME-3M melanoma
NCI-H460 NSCLC = test system: NCI-H460 NSCLC
HOP-92 NSCLC = test system: HOP-92 NSCLC
SK-OV-3 ovarian = test system: SK-OV-3 ovarian
UACC-257 melanoma = test system: UACC-257 melanoma
U251 glioblastoma = test system: U251 glioblastoma
KM12 colon = test system: KM12 colon
EKVX NSCLC = test system: EKVX NSCLC
RXF 393 renal = test system: RXF 393 renal

O=c1cc(N2CCOCC2)oc2c(-c3ccccc3)cccc12
GI50 (SNB-19 CNS): 23.7 µM
TGI (SNB-19 CNS): > 100 µM
GI50 (MOLT-4 leukemia): 3.86 µM
TGI (MOLT-4 leukemia): 15.2 µM
GI50 (HS 578T breast): 2.78 µM
TGI (HS 578T breast): 9.32 µM
GI50 (NCI-H226 lung): 3.45 µM
TGI (NCI-H226 lung): 10.9 µM
GI50 (MDA-MB-231 breast): 4.13 µM
TGI (MDA-MB-231 breast): 45.8 µM
GI50 (HT29 colon): 6.69 µM
TGI (HT29 colon): 28.7 µM
GI50 (MDA-MB-435 melanoma): 10.3 µM
TGI (MDA-MB-435 melanoma): 32.1 µM
GI50 (CAKI-1 renal): 1.89 µM
TGI (CAKI-1 renal): 9.03 µM
GI50 (NCI-H522 lung): 2.44 µM
TGI (NCI-H522 lung): 10.9 µM
GI50 (SK-MEL-2 melanoma): 20.1 µM
TGI (SK-MEL-2 melanoma): 38.9 µM
GI50 (SF-539 CNS): 10.1 µM
TGI (SF-539 CNS): 37 µM
GI50 (DU-145 prostate): 8.8 µM
TGI (DU-145 prostate): 55.5 µM
GI50 (SK-MEL-28 melanoma): 5.44 µM
TGI (SK-MEL-28 melanoma): 30.7 µM
GI50 (SF-268 CNS): 5.91 µM
TGI (SF-268 CNS): 28.1 µM
GI50 (TK-10 renal): 2.79 µM
TGI (TK-10 renal): 15.4 µM
GI50 (OVCAR-3 ovarian): 6.36 µM
TGI (OVCAR-3 ovarian): 27.9 µM
GI50 (HCC-2998 colon): 12.3 µM
TGI (HCC-2998 colon): 33 µM
GI50 (SK-MEL-5 melanoma): 10.8 µM
TGI (SK-MEL-5 melanoma): 23.5 µM
GI50 (M14 melanoma): 4.81 µM
TGI (M14 melanoma): 29 µM
GI50 (NCI-H322M lung): 12.7 µM
TGI (NCI-H322M lung): 73.2 µM
GI50 (IGROV1 ovarian): 2.54 µM
TGI (IGROV1 ovarian): 7.63 µM
GI50 (A498 renal): 1.86 µM
TGI (A498 renal): 8.98 µM
GI50 (SW-620 colon): 18.9 µM
TGI (SW-620 colon): > 100 µM
GI50 (SR leukemia): 2.2 µM
TGI (SR leukemia): 5.98 µM
GI50 (MCF7 breast): 3 µM
TGI (MCF7 breast): 25.6 µM
GI50 (OVCAR-8 ovarian): 4.9 µM
TGI (OVCAR-8 ovarian): 32.1 µM
GI50 (NCI/ADR-RES ovarian): 5.08 µM
TGI (NCI/ADR-RES ovarian): 21.8 µM
GI50 (RPMI-8226 leukemia): 2.46 µM
TGI (RPMI-8226 leukemia): 8.77 µM
GI50 (UACC-62 melanoma): 8.87 µM
TGI (UACC-62 melanoma): 23.3 µM
GI50 (786-0 renal): 7.17 µM
TGI (786-0 renal): 93.5 µM
GI50 (OVCAR-4 ovarian): 1.76 µM
TGI (OVCAR-4 ovarian): 9.3 µM
GI50 (ACHN renal): 7.85 µM
TGI (ACHN renal): 26.8 µM
GI50 (HCT-15 colon): 6.35 µM
TGI (HCT-15 colon): 90.2 µM
GI50 (OVCAR-5 ovarian): 4.02 µM
TGI (OVCAR-5 ovarian): 39.1 µM
GI50 (BT-549 breast): 2.61 µM
TGI (BT-549 breast): 14.4 µM
GI50 (MDA-MB-468 breast): 2.24 µM
TGI (MDA-MB-468 breast): 7.78 µM
GI50 (HL-60(TB) leukemia): 2.6 µM
TGI (HL-60(TB) leukemia): 12.6 µM
GI50 (A549 NSCLC): 5.87 µM
TGI (A549 NSCLC): 27.9 µM
GI50 (COLO 205 colon): 10.1 µM
TGI (COLO 205 colon): 22.6 µM
GI50 (CCRF-CEM leukemia): 4.08 µM
TGI (CCRF-CEM leukemia): 16.1 µM
GI50 (SN12C renal): 8.03 µM
TGI (SN12C renal): 97.5 µM
GI50 (SF-295 CNS): 17.8 µM
TGI (SF-295 CNS): > 100 µM
GI50 (PC-3 prostate): 3.18 µM
TGI (PC-3 prostate): 18.3 µM
GI50 (NCI-H23 lung): 8.85 µM
TGI (NCI-H23 lung): 32.4 µM
GI50 (SNB-75 CNS): 1.27 µM
TGI (SNB-75 CNS): 12.2 µM
GI50 (HOP-62 NSCLC): 5.17 µM
TGI (HOP-62 NSCLC): 32.8 µM
GI50 (T-47D breast): 3.6 µM
TGI (T-47D breast): 23.4 µM
GI50 (MALME-3M melanoma): 2.12 µM
TGI (MALME-3M melanoma): 8.78 µM
GI50 (NCI-H460 NSCLC): 5.91 µM
TGI (NCI-H460 NSCLC): 66.3 µM
GI50 (HOP-92 NSCLC): 4.79 µM
TGI (HOP-92 NSCLC): 43.2 µM
GI50 (SK-OV-3 ovarian): 3.64 µM
TGI (SK-OV-3 ovarian): 19.7 µM
GI50 (UACC-257 melanoma): 16.9 µM
TGI (UACC-257 melanoma): 51.3 µM
GI50 (U251 glioblastoma): 16.4 µM
TGI (U251 glioblastoma): 58.7 µM
GI50 (KM12 colon): 14 µM
TGI (KM12 colon): 81.7 µM
GI50 (EKVX NSCLC): 4.43 µM
TGI (EKVX NSCLC): 26.7 µM
GI50 (RXF 393 renal): 2.94 µM
TGI (RXF 393 renal): 16.6 µM
